# Source: patent US20230346784A1 (priority 2020, published 2023)
# Entries after “also recorded” stand apart in the source; their conditions may differ.
# Legend:
# [1] = test system: SARS-CoV-2 spike proteins binding to TF1PIGAnull cells; test: Flow cytometry of coronavirus protein binding to TF1PIGAnull cells (heparan sulfate blockade, sialidase treatment); parameters: species or system human; details: sulfate sodium salt; for binding of S1 subunit to TF1PIGAnull cells: 5 μg/mL His-tagged S1 co-incubated with 2 mg/mL heparan sulfate solution; for binding of S2 subunit to TF1PIGAnull cells: 5 μg/mL His-tagged S2 co-incubated with 2 mg/mL heparan sulfate solution
# [2] = test system: APH; test: APH inhibition / IC50 threshold used with simulated concentrations (FIG. 11); parameters: species or system human; details: dotted line in FIG. 11, serum ALXN2040 concentration
# [3] = test system: TF1PIGAnull cells; assay type: cell-based, human
# [4] = test system: C5b-9 deposition on TF1PIGAnull cells; assay type: cell-based, human
# [5] = test system: C3c deposition on TF1PIGAnull cells; assay type: cell-based, human
molecule,measurement,setting,value
Heparan sulfate sodium salt,binding of S1 subunit to TF1PIGAnull cells,[1]; listed as HS,significantly blocked
same,binding of S1 subunit to TF1PIGAnull cells,[1],completely blocked
same,binding of S2 subunit to TF1PIGAnull cells,[1]; listed as HS,significantly blocked
same,binding of S2 subunit to TF1PIGAnull cells,[1],completely blocked
"CC(=O)c1nn(CC(=O)N2C[C@H](F)C[C@H]2C(=O)Nc2cccc(Br)n2)c2ccc(-c3cnc(C)nc3)cc12 [Compound 1, danicopan]",IC50 value,[2],0.235 mg/L
CC(=O)c1nn(CC(=O)N2[C@H]3C[C@]4(C[C@@H]24)Cn2cc(nn2)COCc2ccc(Br)nc2NC3=O)c2ccc(-c3cnc(C)nc3)cc12 [Compound 2],cell killing in the mHam assay induced by S1 and S2,[3],inhibited; also recorded: prevented cell death
same,C5b-9 deposition induced by S1 and S2,[4],inhibit
same,S1-induced C5b-9 deposition,[4],blocking; also recorded: completely blocked
same,S2-induced C5b-9 deposition,[4],blocking
same,C3c deposition induced by S1 and S2,[5],more potent in blocking C3c deposition; also recorded: inhibit
same,S1-induced C3c deposition,[5],blocking; also recorded: completely blocked
same,S2-induced C3c deposition,[5],blocking
